Laboratory results taken from US11925629B2, “Heterocyclic inhibitors of ERK1 and ERK2 and their use in the treatment of cancer” (Asana Biosciences, LLC, priority 2015, dated 2024).

How the values were obtained:
[1] = test system: HT-29 (colorectal carcinoma, B-RafV600E) cells; assay: Cell proliferation (Alamar Blue) assay, HT-29; assay type: cell-based, human
Procedure: (§1) Cell Proliferation (Alamar Blue) Assay
(§2) HT-29 (colorectal carcinoma, B-RafV600E), HCT116 (colorectal carcinoma, K Ras G13D), A375 (melanoma, B-RafV600E) and SK-Mel2 (melanoma, NRAS Q61R) cells (obtained from ATCC, USA) were seeded (5000 cells/well) in 96-well tissue culture plate and incubated at 37° C./5% CO2 for 16-24 hours. The cells were then treated with compounds, at concentrations typically from 0.0005 to 10 uM prepared in 3-fold serial dilutions. The plates were then incubated for 72 h at 37° C./5% CO2 in a moist environment. Then Alamar Blue™ reagent (final concentration 1×) was added to each well and incubated for 1-3 h at 37° C./5% CO2. The plates were read on fluorescence reader at 540 nm excitation and 590 nm emission wavelengths. The IC50 values were subsequently determined using a sigmoidal dose-response curve (variable slope) using GraphPad Prism® 5 software.

[2] = test system: HCT116 (colorectal carcinoma, K Ras G13D) cells; assay: Cell proliferation (Alamar Blue) assay, HCT116; assay type: cell-based, human
Procedure: as §1, §2

[3] = Homo sapiens, HT-29, HT29 cells
[4] = Homo sapiens, HCT-116, HCT116 cells

Row | IC50 [1, 3] | IC50 [2, 4] | IC50 ([1]; HT29 cells) | IC50 ([2]; HCT116 cells) | SMILES
1 | > 2500 nM | > 2500 nM | – | – | Cc1cnc(Nc2ccc(F)cc2Cl)nc1-n1cc(C(=O)NC(CO)c2cccc(Cl)c2)cn1 (stereo not drawn) [Example 45, 1-(2-((2-chloro-4-fluorophenyl)amino)-5-methyl-pyrimidin-4-yl)-N-(1-(3-chlorophenyl)-2-hydroxy-ethyl)-1H-pyrazole-4-carboxamide]
2 | – | – | > 2500 nM | > 2500 nM | Cc1cnc(Nc2ccc(F)cc2Cl)nc1-n1ccc(C(=O)N[C@H](CO)c2cccc(Cl)c2)c1 [Example 57, (S)-1-(2-((2-chloro-4-fluorophenyl)-amino)-5-methyl-pyrimidin-4-yl)-N-(1-(3-chlorophenyl)-2-hydroxy-ethyl)-1H-pyrrole-3-carboxamide]
3 | > 2500 nM | > 2500 nM | – | – | Cc1cnc(Nc2ccc3occc3c2)cc1-n1ccc(C(=O)NC(CO)c2ccccc2)c1 (stereo not drawn) [Example 79, 1-(2-(benzo-furan-5-ylamino)-5-methyl-pyridin-4-yl)-N-(2-hydroxy-1-phenylethyl)-1H-pyrrole-3-carboxamide]
4 | > 2500 nM | > 2500 nM | – | – | NCC(Cc1ccccc1)NC(=O)c1ccn(-c2ccnc(Nc3ccc(F)cc3)c2)c1 (stereo not drawn) [Example 119, N-(1-amino-3-phenyl-propan-2-yl)-1-(2-((4-fluoro-phenyl)amino)pyridin-4-yl)-1H-pyrrole-3-carboxamide]
5 | 250 to 500 nM | > 2500 nM | – | – | Cc1cnc(NC2CCCCC2)nc1-n1cnc(C(=O)NC(CO)c2cccc(Cl)c2)c1 (stereo not drawn) [Example 226, N-(1-(3-chlorophenyl)-2-hydroxyethyl)-1-(2-(cyclohexylamino)-5-methylpyrimidin-4-yl)-1H-imidazole-4-carboxamide]
6 | 250 to 500 nM | 500 to 2500 nM | – | – | NCC(NC(=O)c1cn(-c2ccnc(Nc3ccc(F)cc3)c2)cn1)c1ccccc1 (stereo not drawn) [Example 221, N-(2-amino-1-phenylethyl)-1-(2-((4-fluorophenyl)amino)pyridin-4-yl)-1H-imidazole-4-carboxamide]
7 | 500 to 2500 nM | > 2500 nM | – | – | Cc1cnc(Nc2ccc3c(c2)OC(F)(F)O3)cc1-n1ccc(C(=O)NC(CO)c2cccc(Cl)c2)c1 (stereo not drawn) [Example 92, N-(1-(3-chlorophenyl)-2-hydroxy-ethyl)-1-(2-((2,2-difluoro-benzo[d][1,3]dioxol-5-yl)amino)-5-methyl-pyridin-4-yl)-1H-pyrrole-3-carboxamide]
8 | > 2500 nM | > 2500 nM | – | – | Cc1cnc(Nc2cccnc2)cc1-n1ccc(C(=O)NC(CO)c2ccccc2)c1 (stereo not drawn) [Example 81, N-(2-hydroxy-1-phenylethyl)-1-(5-methyl-2-(pyridin-3-ylamino)pyridin-4-yl)-1H-pyrrole-3-carboxamide]
9 | > 2500 nM | > 2500 nM | – | – | Cc1cnc(Nc2ccc(F)cc2Cl)nc1-n1cc(C(=O)NC(CN)c2ccccc2)cn1 (stereo not drawn) [Example 54, N-(2-amino-1-phenylethyl)-1-(2-((2-chloro-4-fluoro-phenyl)amino)-5-methyl-pyrimidin-4-yl)-1H-pyrazole-4-carboxamide]
10 | 500 to 2500 nM | > 2500 nM | – | – | Cc1cnc(NC2CCN(C)C2)nc1-n1ccc(C(=O)N[C@H](CO)c2cccc(Cl)c2)c1 (stereo partly drawn) [Example 208, N-((S)-1-(3-chlorophenyl)-2-hydroxyethyl)-1-(5-methyl-2-((1-methylpyrrolidin-3-yl)amino)pyrimidin-4-yl)-1H-pyrrole-3-carboxamide]
11 | > 2500 nM | > 2500 nM | – | – | Cc1cnc(NC2CCOCC2)nc1-n1cnc(C(=O)N[C@@H](CO)c2cccc(Cl)c2)c1 [Example 217, (R)-N-(1-(3-chlorophenyl)-2-hydroxyethyl)-1-(5-methyl-2-((tetrahydro-2H-pyran-4-yl)amino)pyrimidin-4-yl)-1H-imidazole-4-carboxamide]
12 | > 2500 nM | > 2500 nM | – | – | Cc1cnc(Nc2ccc(F)cc2Cl)nc1-n1ccc(C(=O)N[C@@H](CN(C)C)c2ccccc2)c1 [Example 97, (R)-1-(2-((2-chloro-4-fluorophenyl)amino)-5-methyl-pyrimidin-4-yl)-N-(2-(dimethyl-amino)-1-phenylethyl)-1H-pyrrole-3-carboxamide]
